Experiment: recombinant barcode read abundance after kanamycin selection (control-corrected) (log10(CPM+1)); higher = more efficient recombination; sequences stand for … in AGTGCAGAGAAAATCGGCCAGTTTTCTCTGCCTGCAGTCCGCATGCCGT…AGATTTATGCAGCGGACTGCCTTTCTCCCAAAGTGATAAACCGGACAGTATCATGGACCGGTTTTCCCGGTAATCCGTATTTGCAAGGTTGGTTTCACT; site = the 11-nt target
Outline: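 A vector carrying a T7-inducible recombinase and the last 73 bp of the bridge RNA received, by Gibson cloning, oligos encoding a promoter, target, barcode and the first 104 bridge RNA bases under J23119. The pooled constructs entered E. coli together with a donor plasmid by electroporation. Selection used chloramphenicol/ampicillin/kanamycin with 0.1 mM IPTG, with chloramphenicol/ampicillin LB agar as the control, each in two replicates. Recombination efficiency is the averaged, control-corrected counts-per-million of barcodes at recombinant junctions, reported as log10(CPM+1).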
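Further: IS621 recombinase and bridge RNA in Escherichia coli cells.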

Sequence | recombinant barcode read abundance (log10)
GTCACAACTTGGGTTCTAACCTGTTGCCG (site GTCACAACTCG) | 0.339
GTCACAGCTTGGGTTCTAACCTGTTGCCT (site GTCAAAGCTTG) | 0.0492
GTCACAGCTTGGGTTCTAACCTGTTGCCT (site GTCACAGCTAG) | 1.23
GTCAGATCTTGGGTTCTAACCTGTTGCTT (site GTCAGATCTAA) | 0.398
GTCAGATCTTGGGTTCTAACCTGTTGCTT (site TCGTTCGCTCG) | 0.0896
GTCAGGGCTTGGGTTCTAACCTGTTGCCT (site GTCAGGGCTAG) | 0.275
GTCAGGGCTTGGGTTCTAACCTGTTGCCT (site GTCATGGCTAG) | 0.197
GTCATGCCTTGGGTTCTAACCTGTTGCGT (site GTCATGCCTAC) | 1.58
GTCATGCCTTGGGTTCTAACCTGTTGCGT (site GTCTTCCCTAC) | 0.125
GTCATGTCTTGGGTTCTAACCTGTTGCTG (site ACAGGTCCTTC) | 0.0358
GTCATGTCTTGGGTTCTAACCTGTTGCTG (site GTCATGTCTCA) | 1.5
GTCCAGCCTTGGGTTCTAACCTGTTGCAT (site CTCTAGCCTAT) | 0.0778
GTCCAGCCTTGGGTTCTAACCTGTTGCAT (site GTCCAGCCTAT) | 1.98
GTCCCTCCTTGGGTTCTAACCTGTTGCAT (site GTCCCTCCTAA) | 0.746
GTCCCTCCTTGGGTTCTAACCTGTTGCAT (site GTCCCTCCTAC) | 0.405
GTCCCTCCTTGGGTTCTAACCTGTTGCAT (site GTCCCTCCTAG) | 0.16
GTCCCTCCTTGGGTTCTAACCTGTTGCAT (site GTCCCTCCTAT) | 1.96
GTCCCTCCTTGGGTTCTAACCTGTTGCTT (site GTCCCTCCTAA) | 0.94
GTCCCTCCTTGGGTTCTAACCTGTTGCTT (site GTCCCTCCTAC) | 0.104
GTCCCTCCTTGGGTTCTAACCTGTTGCTT (site GTCCCTCCTAG) | 0.201
GTCCCTCCTTGGGTTCTAACCTGTTGCTT (site GTCCCTCCTAT) | 0.453
GTCCGTCCTTGGGTTCTAACCTGTTGCAT (site GTCCGTCCTAA) | 0.178

Sequence | recombinant barcode read abundance (log10)
GTCCGTCCTTGGGTTCTAACCTGTTGCAT (site GTCCGTCCTAC) | 0.688
GTCCGTCCTTGGGTTCTAACCTGTTGCAT (site GTCCGTCCTAG) | 0.129
GTCCGTCCTTGGGTTCTAACCTGTTGCAT (site GTCCGTCCTAT) | 1.77
GTCCTAACTTGGGTTCTAACCTGTTGCAC (site GTCCTAACTGT) | 2.08
GTCCTAACTTGGGTTCTAACCTGTTGCAC (site GTCCTACCTTT) | 0.0749
GTCCTACCTTGGGTTCTAACCTGTTGCCT (site GTCATACCTAG) | 0.0144
GTCCTACCTTGGGTTCTAACCTGTTGCCT (site GTCCTACCTAG) | 1.54
GTCCTACCTTGGGTTCTAACCTGTTGCCT (site GTCGTACCTAG) | 0.503
GTCCTACCTTGGGTTCTAACCTGTTGCCT (site GTCTTACCTAG) | 0.588
GTCGACACTTGGGTTCTAACCTGTTGCCT (site GTCGACACTAG) | 1.5
GTCGACACTTGGGTTCTAACCTGTTGCCT (site GTCGAGTCTAG) | 0.126
GTCGACGCTTGGGTTCTAACCTGTTGCCT (site GTCGACCCTAG) | 0.158
GTCGACGCTTGGGTTCTAACCTGTTGCCT (site GTCGACGCTAG) | 0.635
GTCGCCACTTGGGTTCTAACCTGTTGCCT (site GTAGCCACTAG) | 0.239
GTCGCCACTTGGGTTCTAACCTGTTGCCT (site GTCGCCACTAG) | 0.0549
GTCGCCACTTGGGTTCTAACCTGTTGCCT (site GTGGCCACTAG) | 0.159
GTCGCCACTTGGGTTCTAACCTGTTGCCT (site GTTGCCACTAG) | 0.196
GTCGCGGCTTGGGTTCTAACCTGTTGCCT (site GTCGCGACTAG) | 0.454
GTCGCGGCTTGGGTTCTAACCTGTTGCCT (site GTCGCGCCTAG) | 0.182
GTCGCGGCTTGGGTTCTAACCTGTTGCCT (site GTCGCGGCTAG) | 0.418
GTCGCGGCTTGGGTTCTAACCTGTTGCCT (site GTCGCGTCTAG) | 0.324
GTCGCGTCTTGGGTTCTAACCTGTTGCCT (site GTCGCGACTAG) | 0.198

Sequence | recombinant barcode read abundance (log10)
GTCGCGTCTTGGGTTCTAACCTGTTGCCT (site GTCGCGCCTAG) | 0.738
GTCGCGTCTTGGGTTCTAACCTGTTGCCT (site GTCGCGGCTAG) | 0.392
GTCGCGTCTTGGGTTCTAACCTGTTGCCT (site GTCGCGTCTAG) | 0.328
GTCGGAGCTTGGGTTCTAACCTGTTGCCG (site GTCGGAGCTCA) | 0.0109
GTCGGAGCTTGGGTTCTAACCTGTTGCCG (site GTCGGAGCTCC) | 0.152
GTCGGAGCTTGGGTTCTAACCTGTTGCCG (site GTCGGAGCTCG) | 0.218
GTCGGAGCTTGGGTTCTAACCTGTTGCCG (site GTCGGAGCTCT) | 0.435
GTCGGAGCTTGGGTTCTAACCTGTTGCGG (site GTCGGAGCTCA) | 0.282
GTCGGAGCTTGGGTTCTAACCTGTTGCGG (site GTCGGAGCTCC) | 1.97
GTCGGAGCTTGGGTTCTAACCTGTTGCGG (site GTCGGAGCTCG) | 0.0393
GTCGGAGCTTGGGTTCTAACCTGTTGCGG (site GTCGGAGCTCT) | 1.29
GTCGGAGCTTGGGTTCTAACCTGTTGCTG (site GTCGGAGCTCA) | 0.757
GTCGGAGCTTGGGTTCTAACCTGTTGCTG (site GTCGGAGCTCC) | 0.511
GTCGGAGCTTGGGTTCTAACCTGTTGCTG (site GTCGGAGCTCG) | 0.353
GTCGGAGCTTGGGTTCTAACCTGTTGCTG (site GTCGGAGCTCT) | 0.737
GTCGGCACTTGGGTTCTAACCTGTTGCCT (site GTCGGAACTAG) | 0.359
GTCGGCACTTGGGTTCTAACCTGTTGCCT (site GTCGGCACTAG) | 0.491
GTCGGCACTTGGGTTCTAACCTGTTGCCT (site GTCGGGACTAG) | 0.653
GTCGGCACTTGGGTTCTAACCTGTTGCCT (site GTCGGTACTAG) | 0.221
GTCGGCGCTTGGGTTCTAACCTGTTGCCT (site GTAGGCGCTAG) | 0.107
GTCGGCGCTTGGGTTCTAACCTGTTGCCT (site GTCGGCGCTAG) | 0.912
GTCGGCGCTTGGGTTCTAACCTGTTGCCT (site GTGGGCGCTAG) | 0.531

Sequence | recombinant barcode read abundance (log10)
GTCGGCGCTTGGGTTCTAACCTGTTGCCT (site GTTGGCGCTAG) | 0.256
GTCGGGACTTGGGTTCTAACCTGTTGCCT (site GTCGGAACTAG) | 0.863
GTCGGGACTTGGGTTCTAACCTGTTGCCT (site GTCGGCACTAG) | 0.113
GTCGGGACTTGGGTTCTAACCTGTTGCCT (site GTCGGGACTAG) | 1.51
GTCGGGACTTGGGTTCTAACCTGTTGCCT (site GTCGGTACTAG) | 0.0446
GTCGTAGCTTGGGTTCTAACCTGTTGCCT (site GACGTAGCTAG) | 0.464
GTCGTAGCTTGGGTTCTAACCTGTTGCCT (site GCCGTAGCTAG) | 0.0842
GTCGTAGCTTGGGTTCTAACCTGTTGCCT (site GGCGTAGCTAG) | 0.116
GTCGTAGCTTGGGTTCTAACCTGTTGCCT (site GTCGTAGCTAG) | 0.256
GTCTAAGCTTGGGTTCTAACCTGTTGCCT (site GTCTAAGCTAG) | 0.171
GTCTAAGCTTGGGTTCTAACCTGTTGCCT (site GTCTGAGCTAG) | 0.0375
GTCTACTCTTGGGTTCTAACCTGTTGCTG (site GTCTACTCTCA) | 1.65
GTCTACTCTTGGGTTCTAACCTGTTGCTG (site GTCTTCTCTAA) | 0.0134
GTCTCATCTTGGGTTCTAACCTGTTGCCT (site GTCTAATCTAG) | 0.0787
GTCTCATCTTGGGTTCTAACCTGTTGCCT (site GTCTCATCTAG) | 0.154
GTCTCATCTTGGGTTCTAACCTGTTGCCT (site GTCTGATCTAG) | 0.0892
GTCTCATCTTGGGTTCTAACCTGTTGCCT (site GTCTTATCTAG) | 0.0289
GTCTCGGCTTGGGTTCTAACCTGTTGCTG (site GGGTCGGCTCA) | 0.0356
GTCTCGGCTTGGGTTCTAACCTGTTGCTG (site GTCTCGGCTCA) | 0.0917
GTCTCTACTTGGGTTCTAACCTGTTGCCG (site GTCACTACTCG) | 0.234

From the supplement of paper PMC11208160
